Assay type in all cases: cell-based
The subject of series [1] is Madin-Darby bovine kidney (MDBK) cells. Description: Drug cytotoxicity in uninfected MDBK cells. The conditions noted are these: for TC50: uninfected MDBK cells. The text has this: (§1) A virus-induced cytopathogenic effects (CPE)-inhibition assay procedure was employed to evaluate compounds for antiviral activity against bovine viral diarrhea virus (BVDV) strain NADL, in Madin-Darby bovine kidney (MDBK) cells passaged in T-75 flasks (1, 2). Antiviral assays were designed to test six half-log concentrations of each compound in triplicate against the challenge virus. Cell controls (CC) containing medium alone, virus-infected cell controls (VC) containing medium and virus, drug cytotoxicity controls containing medium and each drug concentration, reagent controls containing culture medium only (no cells), and drug colorimetric controls containing drug and medium (no cells) are run simultaneously with the test samples. Human interferon-α 2b was used as a positive control compound. On the day preceding the assay, the cells were trypsinized, pelleted, counted and resuspended at 1×10^4/well in tissue culture medium in 96-well flat bottom tissue culture plates in a volume of 100 μl per well. One day following plating of cells, the wells were washed and the medium was replaced with complete medium (2% serum) containing various concentrations of test compound diluted in medium in a half-log series. A pre-titered aliquot of virus was removed from the freezer (−80° C.) just before each experiment. The virus was diluted into tissue culture medium such that the amount of virus added to each well would give complete cell killing at 6-7 days post-infection. The plates were incubated at 37° C. in a humidified atmosphere containing 5% CO2 until maximum CPE is observed in the untreated virus control cultures (˜day 7) Inhibition of CPE by the compound was determined using Cell Titer 96 (Promega). A colorimetric method for determining the number of viable cells was used. A computer program was utilized to calculate the percent of CPE reduction of the virus-infected wells and the percentage cell viability of uninfected drug control wells. […] A therapeutic (selectivity) index (TI50) for each active compound was determined by dividing the TC50 by the IC50.
(§2) Drug cytotoxicity was measured separately in uninfected cells. Eleven BIT compounds were tested in the first experiment in which the compounds were added to the cells just prior to infection and were maintained throughout the entire experiment. Two of them, BIT225 and BIT314 returned sub-micromolar IC50 values (see Table 2 below).

In series [2] the target is T1, HCV p7 ion channel protein (Hepatitis C virus genotype 1a, UniProt P27958).
T1 construct: codons were optimised for expression of the p7 protein in E. coli; expressed in transfected cells; host or cells: E. coli carrying plasmid pPLp7 (pPL451 backbone, temperature-inducible)
Description: Bacterial bioassay: growth of E. coli expressing HCV p7. On the set-up: scale not given here. The conditions noted are these: cumulative averaged scores; result above zero indicates potential anti-viral activity. The text has this: The bacterial bioassay method used in the present example to test the anti-viral activity of the compounds against different viral targets was described in detail in PCT/2004/000866, incorporated in its entirety herein by reference. This assay is used in conjunction with the GBV-B and BVDV assays described below, to ensure that all active compounds are identified, some of which are active in one or the other of the assays, while some compounds may be active in both assays.
Briefly, the bacterial bio-assay for screening potential anti-HCV compounds is based on the HCV p7 ion channel protein. p7 is a small membrane protein encoded by HCV, which has a functional activity supporting viral growth and/or replication.
The p7-encoding synthetic cDNA fragment cDp7.coli, in which codons were optimised for expression of the p7 protein in E. coli, was cloned into the expression plasmid pPL451, creating the vector pPLp7, in which p7 expression is temperature inducible, as described in detail in PCT/2004/000866. Inhibition of the growth of E. coli cells expressing p7 at 37° C. was observed as an indicator of p7 ion channel function dissipating the normal Na+gradient maintained by the bacterial cells. Halos of growth around a particular compound application site indicate that the compound has inhibited expression of the p7 ion channel activity that prevents growth in the absence of the compound.
The positive controls were used in this assay to ensure that the assay was working rather than for comparison of relative activities of the compounds.

For series [3], the system named is bovine viral diarrhea virus (BVDV) strain NADL. Description: BVDV CPE-inhibition assay in MDBK cells. The procedure:
The antiviral evaluation of selected BIT compounds against BVDV was outsourced to Southern Research Institute (SRI), Fredrick Md. USA. A simple cytoprotection format is used in which the antiviral efficacy of the compounds is assessed by their ability to reduce the cytopathic effect of BVDV infection in Madin-Darby bovine kidney cells (Buckwold et al., 2003)
as §1, §2

Setting [4] is: Bovine viral diarrhea virus isolates and strains, MDBK, Table 2a, read-out: BVDV IC50.
The mark [5] stands for this setting: BVDV in MDBK cells, compound added just prior to infection and maintained, N/A = not achieved, read-out: IC50.
Setting [6] is: Bovine viral diarrhea virus isolates and strains, MDBK, nucleoside analog tested individually against BVDV, read-out: EC50.

Values joined by “and” are separate entries in the source; they are usually repeats but may differ in a detail not shown here. Equal values may be shown once. Read-outs that look alike come from different tables or passages of the source. Some results are limits rather than exact numbers.

T1 sequence (P27958 747-809): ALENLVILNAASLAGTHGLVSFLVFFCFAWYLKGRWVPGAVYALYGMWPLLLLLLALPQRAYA

With `N=C(N)NC(=O)C=Cc1ccc(Cl)c(Cl)c1` [BIT300, 3,4-dichlorocinnamoyl guanidine], the TC59 in series [1] was 3.69 µM. Further, the “Average Bacterial Assay Score HCV p7” value in series [2] is reported as 1.12.
On to `COc1cc(C(=O)NC(=N)N)c(OC)c2ccccc12` [BIT304, (1,4-dimethoxy--2-napthoyl)guanidine], for which the IC50 in series [3] (setting [4]) was over 20 µM. The “Average Bacterial Assay Score HCV p7” value in series [2] is recorded as 0.60.
`CC(=O)O.Cn1cc(-c2ccc3cc(C(=O)NC(=N)N)ccc3c2)cn1` [BIT314, (6-(1-methylpryazol-4-yl)-2-napthoyl)guanidinium acetate]: the TC50 in series [1] was 11.6 µM. Also, the IC50 in series [3] (setting [5]) was 0.21 µM; in series [3] (setting [4]), 0.39 µM. In addition, the EC50 is 0.3 µM in series [3] (Bovine viral diarrhea virus isolates and strains, MDBK, drug alone, average of experiments, read-out: average EC50); 0.183 µM in series [3] (Bovine viral diarrhea virus isolates and strains, MDBK, in the presence of 5 IU/ml IFNα plus 1.25 μg/ml ribavirin, read-out: EC50); about 0.06 µM in series [3] (Bovine viral diarrhea virus isolates and strains, MDBK, in the presence of 40 IU/ml IFNα, read-out: EC50); 0.38 µM in series [3] (drug alone, average of experiments, read-out: average EC50); 0.21 µM and 0.39 µM and 0.54 µM in series [3] (drug tested individually against BVDV, read-out: EC50). The “IC50 values (in words)” value in series [3] (first experiment, Table 2) is reported as “sub-micromolar”. Moreover, the “Average Bacterial Assay Score HCV p7” value in series [2] worked out at 4.03.
`N=C(N)NC(=O)c1ccc2c(-c3ccccc3Cl)cccc2c1` [BIT316, (5-(2-chlorophenyl)-2-napthoyl)guanidine]: the IC50 in series [3] (setting [4]) is over 20 µM. The “Average Bacterial Assay Score HCV p7” value in series [2] is listed as 0.37.
On to `N=C(N)NC(=O)/C=C/c1cccc2c1OCO2` [BIT217, 2,3-methylenedioxycinnamoyl guanidine], for which the “Average Bacterial Assay Score HCV p7” value in series [2] stood at 1.0.
For `C[C@@]1(O)[C@H](O)[C@@H](CO)O[C@H]1n1cnc2c(N)ncnc21` [2′-C-methyladenosine, reference compound], the EC50 in series [3] (setting [6]) came out at 2.16 µM.
In turn, IFN-α came in with a TC59 in series [1] of over 500 IU/mL. Moreover, the inhibition in series [3] (5 IU/ml IFNα alone) was about 8%. In series [3] (BVDV in MDBK cells, positive control), this molecule came in with an IC50 of 20.6 IU/mL. Moreover, the EC50 in series [3] (drug tested individually against BVDV) was found to be 21.7 IU/ml.
With `N=C(N)NC(=O)/C=C/c1cccc2c1CCC2` [BIT222, 3(indan-4-yl)-propenoylguanidine], the “Average Bacterial Assay Score HCV p7” value in series [2] came to 2.0.
On to `COc1cc2ccccc2cc1C(=O)NC(=N)N` [BIT302, (3-methoxy-2-napthoyl)guanidine], for which the IC50 in series [3] (setting [4]) was found to be 7.21 µM. The “Average Bacterial Assay Score HCV p7” value in series [2] is reported as 0.76.
With `Cc1ccc2cc(C(=O)NC(=N)N)ccc2c1` [BIT306, (6-methyl-2-napthoyl)guanidine], the IC50 in series [3] (setting [4]) was 14.5 µM. For the same molecule, in series [2], the “Average Bacterial Assay Score HCV p7” value is reported as 0.07.
In turn, `N=C(N)NC(=O)C=Cc1cc(Br)ccc1F` [BIT124, 5-bromo-2-fluorocinnamoylguanidine] showed a TC59 in series [1] of 5.21 µM. The “Average Bacterial Assay Score HCV p7” value in series [2] is 2.70.
For `CC(=O)Nc1cccc(-c2cccc3cc(C(=O)NC(=N)N)ccc23)c1` [BIT318, (5-(3-(acetylamino)phenyl)-2-napthoyl)guanidine], the IC50 in series [3] (setting [4]) was over 20 µM. Moreover, in series [2], the “Average Bacterial Assay Score HCV p7” value is on record as 0.73.
Consider `N=C(N)NC(=O)c1ccc2c(Cl)cccc2c1` [BIT313, (5-chloro-2-napthoyl)guanidine], for which the IC50 in series [3] (setting [4]) stood at 9.64 µM. For the same molecule, in series [2], the “Average Bacterial Assay Score HCV p7” value was 1.30.
The corresponding values for `N=C(N)NC(=O)c1ccc2c(-c3ccoc3)cccc2c1` [BIT311, (5-(3-furyl)-2-napthoyl)guanidine] are 2.96 µM and 0.81.
`N=C(N)NC(=O)c1ccc2c(Br)cccc2c1` [BIT303, (5-bromo-2-napthoyl)guanidine]: the IC50 in series [3] (setting [4]) is 13.6 µM. Also, the “Average Bacterial Assay Score HCV p7” value in series [2] was 0.62.
With `N=C(N)NC(=O)c1ccc2c(-c3ccsc3)cccc2c1` [BIT224, 5-thiophen-3-yl-2-naphthoylguanidine], the “Average Bacterial Assay Score HCV p7” value in series [2] worked out at 1.10.
As for `COc1c(C(=O)NC(=N)N)ccc2ccccc12` [BIT301, (1-methoxy-2-napthoyl)guanidine], in series [3] (setting [4]), the IC50 was over 20 µM. In addition, in series [2], the “Average Bacterial Assay Score HCV p7” value was 0.25.
Turning to `CS(=O)(=O)Nc1ccc(-c2cccc3cc(C(=O)NC(=N)N)ccc23)cc1` [BIT319, (5-(4-((methylsulphonyl)amino)phenyl)-2-napthoyl)guanidine], in series [3] (setting [4]), the IC50 is over 20 µM. In series [2], the “Average Bacterial Assay Score HCV p7” value was 0.10.
On to `N=C(N)NC(=O)/C=C/c1cccc(C(=O)c2ccccc2)c1` [BIT216, (3-benzoyl)cinnamoylguanidine], for which the “Average Bacterial Assay Score HCV p7” value in series [2] is listed as 1.3.
On to `Cc1cccc2cc(C(=O)NC(=N)N)ccc12` [BIT218, 5-methyl-2-napthoylguanidine], for which the “Average Bacterial Assay Score HCV p7” value in series [2] came out at 1.7.
On to `CC(C)Cn1cc(-c2cccc3cc(C(=O)NC(=N)N)ccc23)cn1` [BIT310, (5-(1-isobutyl-1H-pyrazol-4-yl)-2-napthoyl)guanidine], for which the IC50 in series [3] (setting [4]) was over 20 µM. In series [2], the “Average Bacterial Assay Score HCV p7” value was determined as 0.36.
As to `COc1ccc(-c2cccc3cc(C(=O)NC(=N)N)ccc23)c(OC)n1` [BIT315, (5-(2,6-dimethoxypryridin-3-yl)-2-napthoyl)guanidine], the IC50 in series [3] (setting [4]) is over 20 µM. In addition, the “Average Bacterial Assay Score HCV p7” value in series [2] worked out at 0.20.
Regarding `N=C(N)NC(=O)c1ccc2cc(-c3ccsc3)ccc2c1` [BIT305, (6-(3-thienyl)-2-napthoyl)guanidine], in series [3] (setting [4]), the IC50 is over 20 µM. For the same molecule, the “Average Bacterial Assay Score HCV p7” value in series [2] is on record as 0.08.
Consider `C[C@@]1(O)[C@H](O)[C@@H](CO)O[C@H]1n1ccc(N)nc1=O` [2′-C-methylcytidine, reference compound], for which the EC50 in series [3] (setting [6]) was 2.75 µM.
Consider `N=C(N)NC(=O)c1ccc2c(-c3cccs3)cccc2c1` [BIT308, (5-(thien-2-yl)-2-napthoyl)guanidine], for which the IC50 in series [3] (setting [4]) amounted to 8.73 µM. Besides, the “Average Bacterial Assay Score HCV p7” value in series [2] came out at 0.55.
Regarding `N=C(N)NC(=O)C=Cc1cccc(Br)c1` [BIT067, (3-Bromocinnamoyl)guanidine], the “Average Bacterial Assay Score HCV p7” value in series [2] is recorded as 2.00.
As to `COc1ccc2cc(C(=O)NC(=N)N)ccc2c1Br` [BIT223, 5-bromo-6-methoxy-2-napthoylguanidine], the TC50 in series [1] is over 30.0 µM. Besides, the IC50 in series [3] (setting [5]) turned out to be 4.38 µM. Further, the “Average Bacterial Assay Score HCV p7” value in series [2] was found to be 0.5.
In the case of `N=C(N)NC(=O)c1ccc2c(C3CC3)cccc2c1` [BIT312, (5-cyclopropyl-2-napthoyl)guanidine], the IC50 in series [3] (setting [4]) came to 8.63 µM. The “Average Bacterial Assay Score HCV p7” value in series [2] came to 1.00.
As for `N=C(N)NC(=O)c1ccc2c(-c3ccccc3)cccc2c1` [BIT307, (5-phenyl-2-napthoyl)guanidine], the IC50 in series [3] (setting [4]) is 1.99 µM. Further, the “Average Bacterial Assay Score HCV p7” value in series [2] is 0.46.
For `CC(=O)Nc1ccc(-c2cccc3cc(C(=O)NC(=N)N)ccc23)cc1` [BIT317, (5-(4-(acetylamino)phenyl)-2-napthoyl)guanidine], in that order: 6.02 µM and 0.06.

What is called inhibition is the relative decrease from the control value, in per cent.

(Values after patent publication US20100254942A1, “HEPATITIS C ANTIVIRAL COMPOSITIONS AND METHODS” (BIOTRON LIMITED, priority 2007, published 2010).)
